Drawing on US10118916B2, “Modulators of cystic fibrosis transmembrane conductance regulator protein” (AbbVie S.à.r.l., priority 2016, dated 2018), this text covers EC50 and Maximum % activity for 18 compounds.

One may read the pEC50 as −log10 of the EC50, conventionally taken in molar units. A high value points to a small EC50.

The experiment concerns the target T1, F508delCFTR (Homo sapiens, UniProt P13569, DEL508-508).
T1 construct: expressed in transfected cells; host or cells: CFBE41o- (human lung derived epithelial cell line), doxycycline-inducible
The experiment can be described thus: Cell Surface Expression-Horse Radish Peroxidase (CSE-HRP) assay. Format: cell-based. The note with it: CFBE41o-F508delCFTR-HRP cells; for pEC50: F508delCFTR cell surface expression, luminescence, 18-24 hours at 33° C., highest concentration 20 μM; for Maximum % activity: maximum at any tested concentration, normalized to on-plate positive control (3 μM). The gist of the method: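 CFBE41o- cells expressing doxycycline-induced (0.5 μg/mL, 72 h at 37 °C) F508delCFTR with HRP in the fourth extracellular loop; compounds 8 points, 3-fold from 20 μM, 18-24 h at 33 °C. Surface HRP measured by luminol luminescence, normalised to DMSO and 3 μM reference corrector; EC50 from variable-slope sigmoidal fit of triplicate plates.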

The structures appear in SMILES notation. pEC50: −log10 of the molar value.

T1 sequence (P13569 with tags, fused parts or gaps DEL508-508): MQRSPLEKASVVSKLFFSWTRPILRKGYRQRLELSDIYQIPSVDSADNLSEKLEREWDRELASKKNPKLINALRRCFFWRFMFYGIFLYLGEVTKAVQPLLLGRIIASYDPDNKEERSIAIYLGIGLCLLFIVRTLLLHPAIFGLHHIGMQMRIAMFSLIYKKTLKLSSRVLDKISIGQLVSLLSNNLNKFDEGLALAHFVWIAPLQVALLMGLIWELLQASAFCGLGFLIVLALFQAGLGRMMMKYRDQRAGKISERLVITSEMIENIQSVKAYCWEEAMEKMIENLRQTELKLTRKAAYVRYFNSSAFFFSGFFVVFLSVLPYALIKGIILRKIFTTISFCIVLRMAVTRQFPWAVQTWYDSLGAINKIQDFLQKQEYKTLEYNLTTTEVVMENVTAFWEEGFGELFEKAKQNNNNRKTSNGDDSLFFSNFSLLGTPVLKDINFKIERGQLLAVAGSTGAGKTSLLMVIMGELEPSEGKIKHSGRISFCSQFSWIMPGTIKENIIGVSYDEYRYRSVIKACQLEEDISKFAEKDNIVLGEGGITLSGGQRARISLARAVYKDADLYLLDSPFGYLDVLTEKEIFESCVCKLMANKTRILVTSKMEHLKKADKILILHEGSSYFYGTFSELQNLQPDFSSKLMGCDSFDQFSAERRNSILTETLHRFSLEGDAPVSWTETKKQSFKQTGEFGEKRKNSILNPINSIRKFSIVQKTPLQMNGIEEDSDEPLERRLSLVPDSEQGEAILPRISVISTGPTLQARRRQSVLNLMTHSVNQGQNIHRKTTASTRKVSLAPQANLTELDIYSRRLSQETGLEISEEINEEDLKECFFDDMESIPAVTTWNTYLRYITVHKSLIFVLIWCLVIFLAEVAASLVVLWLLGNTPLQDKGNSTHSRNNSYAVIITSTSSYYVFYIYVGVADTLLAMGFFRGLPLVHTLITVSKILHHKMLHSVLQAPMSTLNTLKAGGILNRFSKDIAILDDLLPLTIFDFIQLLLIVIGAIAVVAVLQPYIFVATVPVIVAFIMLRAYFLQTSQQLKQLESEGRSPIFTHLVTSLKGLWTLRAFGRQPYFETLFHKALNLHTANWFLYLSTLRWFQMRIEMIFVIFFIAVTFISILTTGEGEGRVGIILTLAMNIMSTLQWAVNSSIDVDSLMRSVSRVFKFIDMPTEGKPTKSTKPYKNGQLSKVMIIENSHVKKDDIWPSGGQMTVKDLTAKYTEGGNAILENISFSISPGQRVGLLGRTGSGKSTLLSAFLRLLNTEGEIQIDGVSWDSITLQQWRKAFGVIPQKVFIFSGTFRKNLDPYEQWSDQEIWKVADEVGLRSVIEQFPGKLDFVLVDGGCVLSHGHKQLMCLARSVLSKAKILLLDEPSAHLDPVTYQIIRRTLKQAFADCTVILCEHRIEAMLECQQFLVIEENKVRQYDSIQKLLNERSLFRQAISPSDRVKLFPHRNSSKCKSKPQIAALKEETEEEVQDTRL

In turn, `COc1ccc2c(c1)O[C@@H](c1ccc(C(=O)O)cc1)C[C@H]2NC(=O)C1(c2ccccc2F)CC1` [Example 106, 4-[(2R,4R)-4-{[1-(2-fluorophenyl)cyclopropane-1-carbonyl]amino}-7-methoxy-3,4-dihydro-2H-1-benzopyran-2-yl]benzoic acid] showed a pEC50 of 5.89 and a Maximum % activity of 46.0%.

Consider `COc1ccc2c(c1)O[C@@H](c1ccc(C(=O)O)cc1)C[C@H]2NC(=O)C(C)(C)Oc1ccc(C#N)cc1` [Example 107, 4-{(2R,4R)-4-[2-(4-cyanophenoxy)-2-methylpropanamido]-7-methoxy-3,4-dihydro-2H-1-benzopyran-2-yl}benzoic acid], for which the pEC50 is 5.88 and the Maximum % activity came out at 22.4%.

As for `COc1ccc2c(c1)O[C@@H](c1ccc(C(=O)O)cc1)C[C@H]2NC(=O)C1(c2ccc(Cl)cc2)CC1` [Example 108, 4-[(2R,4R)-4-{[1-(4-chlorophenyl)cyclopropane-1-carbonyl]amino}-7-methoxy-3,4-dihydro-2H-1-benzopyran-2-yl]benzoic acid], the negative-log EC50 (pEC50) was 6.77 and the Maximum % activity was determined as 77.7%.

`COc1ccc2c(c1)O[C@@H](c1ccc(C(=O)O)cc1)C[C@H]2NC(=O)C(C)(C)c1ccc(OC(F)(F)F)cc1` [Example 109, 4-[(2R,4R)-7-methoxy-4-{2-methyl-2-[4-(trifluoromethoxy)phenyl]propanamido}-3,4-dihydro-2H-1-benzopyran-2-yl]benzoic acid] showed a pEC50 of 5.87 and a Maximum % activity of 93.0%.

Compound `COc1ccc2c(c1)O[C@@H](c1ccc(C(=O)O)cc1)C[C@H]2NC(=O)C(C)(C)c1ccc(Cl)cc1` [Example 110, 4-{(2R,4R)-4-[2-(4-chlorophenyl)-2-methylpropanamido]-7-methoxy-3,4-dihydro-2H-1-benzopyran-2-yl}benzoic acid] showed a pEC50 of 6.51 and a Maximum % activity of 85.0%.

In turn, `COc1ccc2c(c1)O[C@@H](c1ccc(C(=O)O)cc1)C[C@H]2NC(=O)C(C)(C)c1ccc(F)cc1` [Example 111, 4-{(2R,4R)-4-[2-(4-fluorophenyl)-2-methylpropanamido]-7-methoxy-3,4-dihydro-2H-1-benzopyran-2-yl}benzoic acid] gave a pEC50 of 6.08 and a Maximum % activity of 47.7%.

`COc1ccc2c(c1)O[C@@H](c1ccc(C(=O)O)cc1)C[C@H]2NC(=O)C(C)(C)c1ccc2c(c1)OCCO2` [Example 112, 4-{(2R,4R)-4-[2-(2,3-dihydro-1,4-benzodioxin-6-yl)-2-methylpropanamido]-7-methoxy-3,4-dihydro-2H-1-benzopyran-2-yl}benzoic acid] had a pEC50 of 6.44 and a Maximum % activity of 59.9%.

Turning to `COc1ccc2c(c1)O[C@@H](c1ccc(C(=O)O)cc1)C[C@H]2NC(=O)C(C)(C)c1ccc(OC)c(F)c1` [Example 113, 4-{(2R,4R)-4-[2-(3-fluoro-4-methoxyphenyl)-2-methylpropanamido]-7-methoxy-3,4-dihydro-2H-1-benzopyran-2-yl}benzoic acid], the pEC50 is 7.22 and the Maximum % activity is given as 43.5%.

The compound `COc1ccc(C2(C(=O)N[C@@H]3C[C@H](c4ccc(C(=O)O)cc4)Oc4cc(OC)ccc43)CCCC2)cc1` [Example 114, 4-[(2R,4R)-7-methoxy-4-{[1-(4-methoxyphenyl)cyclopentane-1-carbonyl]amino}-3,4-dihydro-2H-1-benzopyran-2-yl]benzoic acid] gave a negative-log EC50 (pEC50) of less than 4.70 and a Maximum % activity of 2.2%.

As for `COc1ccc(C2(C(=O)N[C@@H]3C[C@H](c4ccc(C(=O)O)cc4)Oc4cc(OC)ccc43)CCC2)cc1` [Example 115, 4-[(2R,4R)-7-methoxy-4-{[1-(4-methoxyphenyl)cyclobutane-1-carbonyl]amino}-3,4-dihydro-2H-1-benzopyran-2-yl]benzoic acid], the pEC50 was 6.20 and the Maximum % activity came to 69.8%.

On to `COc1ccc2c(c1)O[C@@H](c1ccc(C(=O)O)cc1)C[C@H]2NC(=O)C1(c2ccc(OC)c(OC)c2)CCC1` [Example 116, 4-[(2R,4R)-4-{[1-(3,4-dimethoxyphenyl)cyclobutane-1-carbonyl]amino}-7-methoxy-3,4-dihydro-2H-1-benzopyran-2-yl]benzoic acid], for which the pEC50 was 5.49 and the Maximum % activity came to 27.6%.

In turn, `COc1ccc(C(C)(C)C(=O)N[C@@H]2C[C@H](c3ccc(C(=O)O)cc3)Oc3cc(OC)ccc32)c(F)c1` [Example 117, 4-{(2R,4R)-4-[2-(2-fluoro-4-methoxyphenyl)-2-methylpropanamido]-7-methoxy-3,4-dihydro-2H-1-benzopyran-2-yl}benzoic acid] showed a pEC50 of 6.46 and a Maximum % activity of 47.0%.

As to `COc1ccc2c(c1)O[C@@H](c1ccc(C(=O)O)cc1)C[C@H]2NC(=O)C(C)(C)Oc1ccc(F)cc1` [Example 118, 4-{(2R,4R)-4-[2-(4-fluorophenoxy)-2-methylpropanamido]-7-methoxy-3,4-dihydro-2H-1-benzopyran-2-yl}benzoic acid], the pEC50 was less than 4.70 and the Maximum % activity is given as 16.3%.

For `COc1ccc2c(c1)O[C@@H](c1ccc(C(=O)O)cc1)C[C@H]2NC(=O)C(C)(C)Oc1ccc(Cl)cc1` [Example 119, 4-{(2R,4R)-4-[2-(4-chlorophenoxy)-2-methylpropanamido]-7-methoxy-3,4-dihydro-2H-1-benzopyran-2-yl}benzoic acid], the pEC50 is 5.53 and the Maximum % activity was found to be 27.4%.

For the compound `COc1ccc2c(c1)O[C@@H](c1ccc(C(=O)O)cc1)C[C@H]2NC(=O)C(C)(C)c1ccc2c(c1)OCO2` [Example 120, 4-{(2R,4R)-4-[2-(2H-1,3-benzodioxol-5-yl)-2-methylpropanamido]-7-methoxy-3,4-dihydro-2H-1-benzopyran-2-yl}benzoic acid], the pEC50 is 7.30 and the Maximum % activity is 73.9%.

Regarding `COc1ccc(C(C)(C)C(=O)N[C@@H]2C[C@H](c3ccc(C(=O)O)cc3)Oc3cc(OC)ccc32)cc1` [Example 121, 4-{(2R,4R)-7-methoxy-4-[2-(4-methoxyphenyl)-2-methylpropanamido]-3,4-dihydro-2H-1-benzopyran-2-yl}benzoic acid], the pEC50 is 7.15 and the Maximum % activity stood at 49.6%.

Compound `COc1ccc2c(c1)O[C@@H](c1cccc(C(=O)O)c1)C[C@H]2NC(=O)C1(C)CCc2cc(C)ccc21` (stereo partly drawn) [Example 122, 3-{(2R,4R)-4-[(1,5-dimethyl-2,3-dihydro-1H-indene-1-carbonyl)amino]-7-methoxy-3,4-dihydro-2H-1-benzopyran-2-yl}benzoic acid] gave a pEC50 of 6.51 and a Maximum % activity of 86.2%.

Regarding `COC(=O)c1ccc([C@H]2C[C@@H](NC(=O)C3(C)CCc4cc(C)ccc43)c3ccc(OC)cc3O2)cc1` (stereo partly drawn) [Example 124, methyl 4-{(2R,4R)-4-[(1,5-dimethyl-2,3-dihydro-1H-indene-1-carbonyl)amino]-7-methoxy-3,4-dihydro-2H-1-benzopyran-2-yl}benzoate], the negative-log EC50 (pEC50) is 6.34 and the Maximum % activity came out at 87.7%.
